For this experiment, the target named is mouse CB2 (mCB2) (Mus musculus, UniProt P47936). The format is binding.
Chain of mouse CB2 (mCB2) (P47936 whole entry): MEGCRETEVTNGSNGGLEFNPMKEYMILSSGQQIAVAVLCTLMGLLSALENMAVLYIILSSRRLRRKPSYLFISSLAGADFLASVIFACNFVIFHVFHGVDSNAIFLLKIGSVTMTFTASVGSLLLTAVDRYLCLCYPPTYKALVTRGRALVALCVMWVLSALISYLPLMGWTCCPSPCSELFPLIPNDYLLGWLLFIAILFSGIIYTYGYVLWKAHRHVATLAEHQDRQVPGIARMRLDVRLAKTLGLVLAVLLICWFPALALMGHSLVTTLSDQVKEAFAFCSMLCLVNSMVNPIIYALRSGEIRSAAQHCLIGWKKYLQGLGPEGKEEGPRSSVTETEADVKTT

With `CCCCCCC(C)(C)c1cc(O)c2c(c1)oc(=O)c1ccc(OC)cc12` [AM1710, 3-(1′,1′-dimethylheptyl)-1-hydroxy-9-methoxy-6H-benzo[c]chromene-6-one], the Ki came to 17 nM.

The record behind these values is paper PMC3089437 (2011).
